Test results reported in patent EP3071301B1, “QUERCUS PLANT EXTRACT AS ACTIVE AGENT WITH SKIN ANTI-AGEING PROPERTIES AND COSMETIC COMPOSITIONS CONTAINING IT” (Charlois Cosmetiques, priority 2013, dated 2015).

Columns and labels:
[1] = biological target: T1, hyaluronidase bovine (EC 3.2.1.35) (Bos taurus, UniProt Q2YDK3); experiment: Hyaluronidase enzymatic activity inhibition (Experiment B); format: biochemical
T1 sequence (Q2YDK3 36-553): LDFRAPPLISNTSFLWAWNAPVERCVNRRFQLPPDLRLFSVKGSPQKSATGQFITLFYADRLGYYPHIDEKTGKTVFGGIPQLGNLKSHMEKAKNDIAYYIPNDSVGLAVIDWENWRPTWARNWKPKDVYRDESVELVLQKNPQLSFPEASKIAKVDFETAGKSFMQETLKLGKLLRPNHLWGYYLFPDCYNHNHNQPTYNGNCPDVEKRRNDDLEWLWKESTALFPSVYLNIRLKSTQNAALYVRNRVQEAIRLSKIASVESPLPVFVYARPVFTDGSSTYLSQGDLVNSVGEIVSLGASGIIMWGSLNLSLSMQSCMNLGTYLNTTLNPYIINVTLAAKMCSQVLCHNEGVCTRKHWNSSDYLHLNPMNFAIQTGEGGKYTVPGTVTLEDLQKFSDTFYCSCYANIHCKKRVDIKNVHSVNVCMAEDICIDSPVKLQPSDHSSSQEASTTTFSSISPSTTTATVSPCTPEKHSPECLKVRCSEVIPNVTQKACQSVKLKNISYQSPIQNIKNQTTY
Procedure: L'enzyme est la hyaluronidase bovine (EC 3.2.1.35), préparée tampon phosphate de sodium / chlorure de sodium / BSA, pH 7, et utilisée à 10 U/ml.
Le substrat est l'acide hyaluronique, préparé en tampon phosphate de sodium à pH 5,35 et testé à […].
Les principes actifs selon l'invention et la référence (acide 6-O-palmitoylascorbique, noté APA, testé à 300 µg/ml) sont mis en présence de la hyaluronidase et pré-incubés pendant 10 min à 37 °C sous agitation. L'acide hyaluronique est ensuite ajouté et les mélanges réactionnels sont incubés à 37 °C pendant 2 h. Des conditions contrôles sont réalisées en parallèle en incubant les principes actifs ou la référence en présence du substrat mais en absence de l'enzyme (Contrôle sans enzyme) ou en incubant les principes actifs ou la référence seuls (Contrôle interférence). Il est également réalisé un témoin en incubant l'enzyme seule (Témoin).
La réaction enzymatique est ensuite stoppée par précipitation de l'acide hyaluronique avec une solution tampon contenant de l'albumine de sérum bovin (BSA) à pH 3,75. […] L'activité est inversement proportionnelle à la valeur de DO mesurée.
(§1) Chaque expérience est tripliquée.
(§2) Les résultats sont exprimés en pourcentage d'activité de la hyaluronidase et en pourcentage d'inhibition de l'activité de la hyaluronidase. […]

[2] = Hydrogen peroxide assay (Amplex Red Hydrogen Peroxide/Peroxidase kit); settings: hydrogen peroxide; 50 µM; 30 min
Description: (§3) Le principe actif E2 conforme à l'invention est soumis au test suivant, à des concentrations de 0,1; 0,3; 0,5; 1; 3 % p/p (% en poids de principe actif à tester, par rapport au poids final de milieu contenant le principe actif).
L'essai est réalisé au moyen du kit de dosage Amplex® Red Hydrogen Peroxyde/Peroxydase Assay Kit (Molecular Probes®), dont le réactif 10-acétyl-3,7-dihydroxyphénoxazine est utilisé pour déterminer la quantité de peroxyde d'hydrogène présent. Le substrat non coloré réagit avec le peroxyde d'hydrogène (H2O2) dans un rapport stoechiométrique 1:1 pour produire de la résofurine hautement fluorescente. […]
Le principe actif selon l'invention et le BHA (3-tert-butyl-4-hydroxyanisole), en tant que témoin, à une concentration de 50 µM, sont incubés en présence d'H2O2, de réactif Amplex® Red et d'enzyme Horse Radish Peroxydase (HRP) pendant 30 min à température ambiante. Puis la fluorescence est mesurée, pour une longueur d'onde d'excitation de 540 nm et une longueur d'onde d'émission de 590 nm.
Des contrôles d'auto-fluorescence et d'absorption de fluorescence (quenching) sont aussi réalisés pour chaque concentration de principe actif selon l'invention et du témoin. Les contrôles d'absorption de fluorescence sont réalisés en incubant le peroxyde d'hydrogène (H2O2), le réactif Amplex® Redet l'enzyme HRP pendant 30 min. […]

MMP totales = experiment: Total matrix metalloprotease (MMP) activity inhibition, fluorogenic peptide; format: biochemical, humains
Description: Le principe actif E2 conforme à l'invention est soumis au test suivant, à des concentrations de 1 et 3 % p/p, selon le protocole décrit dans la publication de Sim et al., 2007, Arch Pharm Res, 30(3): 290-298.
Les MMP totales (obtenues selon un protocole standard à partir de surnageants de fibroblastes dermiques humains normaux, irradiés avec des UVB (20 mJ/cm^2)) sont traitées par le mélange inflammatoire acétate de phorbol myristate (PMA) et facteur de nécrose tumorale (TNFα).
Le substrat fluorescent est le peptide fluorogénique décrit dans la publication de Lee et al., 1999, Annals of the New York Academy of Sciences, 878: 635-637, et commercialisé sous la référence M6412 par la société Sigma-Aldrich.
Le principe actif E2 conforme à l'invention ou le témoin (O-phénantroline testée à 0,03; 0,1; 0,3 et 1 mM) sont préincubés pendant 10 min sur glace en présence des MMP totales activées, puis le substrat fluorescent est ajouté. Les plaques ont été incubées pendant 3h à 37°C. Un contrôle d'interférence du composé (composé en présence du mélange réactionnel sans enzyme) et un contrôle « quenching » (mélange réactionnel contenant le substrat et l'enzyme dans lequel le composé n'est ajouté qu'en fin d'incubation) ont été réalisés en parallèle. Le contrôle […] permet de vérifier l'absorption non spécifique de la fluorescence par le composé et donc la spécificité de l'inhibition observée dans la condition test correspondante.
as §1
A la fin de l'incubation, la fluorescence produite suite à la dégradation du substrat est mesurée par fluorimétrie pour une longueur d'onde d'excitation de 328 nm et une longueur d'onde d'émission de 393 nm, au moyen du dispositif SpectroMax Gemini, Molecular Devices.
Le % d'inhibition des MMPs totales est calculé pour chaque échantillon testé. Les résultats obtenus sont montrés dans le tableau 6 ci-après. Tableau 6 - Inhibition de l'activité des MMP totales par le principe actif E2 conforme à l'invention

[3] = biological target: T2, hyaluronidase (EC 3.2.1.35) (Bos taurus, UniProt Q2YDK3); experiment: Hyaluronidase activity inhibition (Experiment A); format: biochemical
T2 sequence (Q2YDK3 36-553): T1 sequence (Q2YDK3 36-553)
Description: as §3
Le substrat est l'acide hyaluronique, testé à 0,04 % en tampon phosphate de sodium.
L'enzyme est la hyaluronidase (EC 3.2.1.35) testée à 10 U/ml en tampon phosphate de sodium / chlorure de sodium / BSA.
Le principe actif selon l'invention et les témoins (vitamine C à 10 mg/l et palmitate d'ascorbyle à 200 µg/ml) sont mis en présence de la hyaluronidase et incubés pendant 10 min à 37 °C sous agitation. L'acide hyaluronique est ensuite ajouté et les mélanges réactionnels sont incubés à 37 °C pendant 2 h. Des conditions contrôles additionnelles sont réalisées en incubant le produit et le substrat en l'absence de l'enzyme, ou en incubant le produit seul correspondant à un contrôle interférence. La réaction enzymatique est ensuite stoppée par précipitation de l'acide hyaluronique avec une solution d'albumine de sérum bovin (BSA). L'absorption (DO) à 540 nm est mesurée à l'aide d'un lecteur de microplaques (ThermoMax, Molecular Devices).
as §1, §2

CCCCCCCCCCCCCCCC(=O)OC[C@H](O)[C@H]1OC(=O)C(O)=C1O [APA, acide 6-O-palmitoylascorbique]
inhibition at 300 µg/mL [1]: 79% | activity at 300 µg/mL ([1]; read-out: Activité hyaluronidase (%)): 21%

COc1ccc(O)c(C(C)(C)C)c1 [BHA, 3-tert-butyl-4-hydroxyanisole]
% inhibition [2]: 60%

c1cnc2c(c1)ccc1cccnc12 [O-Phénanthroline]
% inhibition (MMP totales; 0,1 mM, 100 µM): 15% | % inhibition (MMP totales; 0,03 mM, 30 µM): 1% | % inhibition (MMP totales; 0,3 mM, 300 µM): 73% | % inhibition (MMP totales; 1 mM): 97%

CCCCCCCCCCCCCCCC(=O)OC[C@H](O)[C@H]1OC(=O)C(O)=C1O [Palmitate d'ascorbyle, palmitate d'ascorbyle]
inhibition at 200 µg/mL ([3]; 200 µg/ml): 80%

O=C1O[C@H]([C@@H](O)CO)C(O)=C1O [Vitamine C]
inhibition at 10000 µg/mL ([3]; 10 mg/ml): 71%
